Data taken from the supplement of paper PMC11208160.

experiment: recombinant UMI read abundance after kanamycin selection (control-corrected) (log10(CPM+1)); higher = more efficient recombination; extreme values may be limits of the assay; sequences stand for … in AGTGCAGAGAAAATCGGCCAGTTTTCTCTGCCTGCAGTCCGCATGCCGTGGGACCCCTTGGGTTCTAACCTGTTGCCTAGATTTATGCAGCGGACTGCCTTTCTCCCAAAGTGATAAACCGG…AGGTTGGTTTCACT; site = the 11-nt donor
Outline: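 For the IS621 bridge recombinase, a pooled Escherichia coli screen tested donor and donor-binding-loop pairs. Cells received the pair library together with a target plasmid encoding a fixed target and T7-inducible recombinase, then went onto IPTG (0.07 mM) plus kanamycin or unselected plates in duplicate. After PCR across the donor–target junction and sequencing, recombinant UMI counts were normalized to CPM, averaged, and scaled by control-derived factors. Each value is given as log10(CPM+1).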

In order of falling “recombinant UMI read abundance (log10)” value:
1. CGAGTATCATGGACCGGTTTTCCCGGTAATCCGTATTTGGC (site CGAGTATCTGC)  3.08
2. CGAGGAACATGGACCGGTTTTCCCGGTAATCCGTATTTGTT (site CGAGGAACTAA)  2.78
3. CGATAATCATGGACCGGTTTTCCCGGTAATCCGTATTTGGT (site CGATAATCTAC)  2.74
4. CGAGGTGCATGGACCGGTTTTCCCGGTAATCCGTATTTGAT (site CGAGGTGCTAT)  2.36
5. CGATCATCATGGACCGGTTTTCCCGGTAATCCGTATTTGCA (site CGATCATCTTG)  2.31
6. CGAGTATCATGGACCGGTTTTCCCGGTAATCCGTATTTGGC (site CTAGTATCTGT)  2.29
7. CGAGTGGCATGGACCGGTTTTCCCGGTAATCCGTATTTGAG (site CGAGTGGCTCT)  1.85
8. CGAGGTGCATGGACCGGTTTTCCCGGTAATCCGTATTTGAT (site CAAGGTGCTAT)  1.84
9. CGAGGAACATGGACCGGTTTTCCCGGTAATCCGTATTTGTT (site CGTGGAACTAA)  1.82
10. CGAGTAGCATGGACCGGTTTTCCCGGTAATCCGTATTTGCC (site CGAGTAGCTGG)  1.66
11. CGAGGTGCATGGACCGGTTTTCCCGGTAATCCGTATTTGAT (site CTAGGTGCTAT)  1.6
12. CGAGGAACATGGACCGGTTTTCCCGGTAATCCGTATTTGGG (site CGAGGATCTCC)  1.59
13. CGATCATCATGGACCGGTTTTCCCGGTAATCCGTATTTGAC (site CGATCATCTGT)  1.49
14. CGAGGTGCATGGACCGGTTTTCCCGGTAATCCGTATTTGAT (site CCAGGTGCTAT)  1.37
15. CGAGGAGCATGGACCGGTTTTCCCGGTAATCCGTATTTGGG (site CGAGGAGCTCC)  0.918
16. CGATCCCCATGGACCGGTTTTCCCGGTAATCCGTATTTGAA (site CGATCCCCTTT)  0.71
17. CGAGGAGCATGGACCGGTTTTCCCGGTAATCCGTATTTGGG (site CGAGGATCTCC)  0.704
18. CGAGGAGCATGGACCGGTTTTCCCGGTAATCCGTATTTGGG (site CGAGGAACTCC)  0.567
19. CGAGGAACATGGACCGGTTTTCCCGGTAATCCGTATTTGTT (site CGGGGAACTAA)  0.474
20. CGATCGACATGGACCGGTTTTCCCGGTAATCCGTATTTGTG (site CGATCGACTAA)  0.242
21. CGAGTCACATGGACCGGTTTTCCCGGTAATCCGTATTTGGG (site CGAGTCACTCC)  0.184
22. CGAGGACCATGGACCGGTTTTCCCGGTAATCCGTATTTGGG (site CGAGGATCTCC)  0.156
23. CGATCGACATGGACCGGTTTTCCCGGTAATCCGTATTTGTG (site CGATCGACTCA)  0.139
24. CGAGGACCATGGACCGGTTTTCCCGGTAATCCGTATTTGGG (site CCAGGACCTCC)  0.059
25. CGAGGAACATGGACCGGTTTTCCCGGTAATCCGTATTTGTT (site CGCGGAACTAA)  0.0367
26. CGAGGAGCATGGACCGGTTTTCCCGGTAATCCGTATTTGGG (site CGAGGACCTCC)  0.0303
27. CGAGGACCATGGACCGGTTTTCCCGGTAATCCGTATTTGGG (site CGAGGACCTCT)  0.0267
28. CGAGTCACATGGACCGGTTTTCCCGGTAATCCGTATTTGGG (site CCAGTCACTCC)  0.0249
29. CGAGGACCATGGACCGGTTTTCCCGGTAATCCGTATTTGGG (site GGAGGACCTCC)  0.0223
30. CGAGGACCATGGACCGGTTTTCCCGGTAATCCGTATTTGGG (site CGAGGCCCTCC)  0.0207
31. CGAGGACCATGGACCGGTTTTCCCGGTAATCCGTATTTGGG (site TGAGGACCTCC)  0.02
32. CGAGGACCATGGACCGGTTTTCCCGGTAATCCGTATTTGGG (site CAAGGACCTCC)  0.019
33. CGAGGACCATGGACCGGTTTTCCCGGTAATCCGTATTTGGG (site CGAGGAACTCC)  0.0189
34. CGAGGACCATGGACCGGTTTTCCCGGTAATCCGTATTTGTG (site CGAGGACCTCC)  0.0189
35. CGAGGTCCATGGACCGGTTTTCCCGGTAATCCGTATTTGGG (site CGAGGCCCTCC)  0.0189
36. CGAGGACCATGGACCGGTTTTCCCGGTAATCCGTATTTGTG (site CGAGGACCTCT)  0.0187
37. CGAGGACCATGGACCGGTTTTCCCGGTAATCCGTATTTGGT (site CGAGGACCTCC)  0.0157
38. CGAGGACCATGGACCGGTTTTCCCGGTAATCCGTATTTGGG (site CGAGAACCTCC)  0.0154
39. CGAGGACCATGGACCGGTTTTCCCGGTAATCCGTATTTGGG (site CGTGGACCTCC)  0.0136
40. CGAGTCACATGGACCGGTTTTCCCGGTAATCCGTATTTGGG (site CAAGTCACTCC)  0.0136
41. CGAGGTCCATGGACCGGTTTTCCCGGTAATCCGTATTTGGG (site CGAGGTCCTCC)  0.0134
42. CGAGGTCCATGGACCGGTTTTCCCGGTAATCCGTATTTGGG (site CGAGGACCTCC)  0.0132
43. CGAGGTCCATGGACCGGTTTTCCCGGTAATCCGTATTTGGG (site CGAGGGCCTCC)  0.0131
44. CGAGGACCATGGACCGGTTTTCCCGGTAATCCGTATTTGGG (site CGAGGACCTCC)  0.0104
45. CGAGGACCATGGACCGGTTTTCCCGGTAATCCGTATTTGGG (site CGATGACCTCC)  0.0104
46. CGAGGACCATGGACCGGTTTTCCCGGTAATCCGTATTTGGG (site CGAGGGCCTCC)  0.0101
47. CGAGGACCATGGACCGGTTTTCCCGGTAATCCGTATTTGGT (site CGAGGACCTTC)  0.0098
48. CGAGTCACATGGACCGGTTTTCCCGGTAATCCGTATTTGGG (site CTAGTCACTCC)  0.00855
49. CGAGGACCATGGACCGGTTTTCCCGGTAATCCGTATTTGGG (site CTAGGACCTCC)  0.00778
50. CGAGGACCATGGACCGGTTTTCCCGGTAATCCGTATTTGGG (site CGAGGACCTTC)  0.00702
51. CGATCATCATGGACCGGTTTTCCCGGTAATCCGTATTTGGG (site CGATCATCTCC)  0.00655
52. CGAGGACCATGGACCGGTTTTCCCGGTAATCCGTATTTGGG (site AGAGGACCTCC)  0.00643
53. CGAGGACCATGGACCGGTTTTCCCGGTAATCCGTATTTGGT (site CGAGGACCTAC)  0.0053
54. CGAGGACCATGGACCGGTTTTCCCGGTAATCCGTATTTGGG (site CGACGACCTCC)  0.00414
55. CGAGGACCATGGACCGGTTTTCCCGGTAATCCGTATTTGGG (site CGAGGACCTCA)  0.0034
56. CGAGGACCATGGACCGGTTTTCCCGGTAATCCGTATTTGGG (site CGAGGTCCTCC)  0.00323
57. CGAGGACCATGGACCGGTTTTCCCGGTAATCCGTATTTGGG (site CGAGGAGCTCC)  0.00291
58. CGAGGACCATGGACCGGTTTTCCCGGTAATCCGTATTTGTG (site CGAGGACCTCA)  0.00285
59. CGAGGACCATGGACCGGTTTTCCCGGTAATCCGTATTTGGG (site CGAAGACCTCC)  0
60. CGAGGACCATGGACCGGTTTTCCCGGTAATCCGTATTTGGG (site CGAGCACCTCC)  0
61. CGAGGACCATGGACCGGTTTTCCCGGTAATCCGTATTTGGG (site CGAGGACCTAC)  0
62. CGAGGACCATGGACCGGTTTTCCCGGTAATCCGTATTTGGG (site CGAGGACCTCG)  0
63. CGAGGACCATGGACCGGTTTTCCCGGTAATCCGTATTTGGG (site CGAGGACCTGC)  0
64. CGAGGACCATGGACCGGTTTTCCCGGTAATCCGTATTTGGG (site CGAGTACCTCC)  0
65. CGAGGACCATGGACCGGTTTTCCCGGTAATCCGTATTTGGG (site CGCGGACCTCC)  0
66. CGAGGACCATGGACCGGTTTTCCCGGTAATCCGTATTTGGG (site CGGGGACCTCC)  0
67. CGAGGACCATGGACCGGTTTTCCCGGTAATCCGTATTTGGT (site CGAGGACCTGC)  0
68. CGAGGACCATGGACCGGTTTTCCCGGTAATCCGTATTTGTG (site CGAGGACCTCG)  0
69. CGATAATCATGGACCGGTTTTCCCGGTAATCCGTATTTGGT (site CGATCATCTAG)  0
70. CGATCATCATGGACCGGTTTTCCCGGTAATCCGTATTTGAC (site CGATCATCTAG)  0
71. CGATCATCATGGACCGGTTTTCCCGGTAATCCGTATTTGCA (site CGATCATCTAG)  0
72. CGATCATCATGGACCGGTTTTCCCGGTAATCCGTATTTGCA (site CGATCATCTCG)  0
73. CGATCATCATGGACCGGTTTTCCCGGTAATCCGTATTTGCA (site CGATCATCTGG)  0
74. CGATCATCATGGACCGGTTTTCCCGGTAATCCGTATTTGGG (site CGATCATCTAG)  0
75. CGATCGACATGGACCGGTTTTCCCGGTAATCCGTATTTGTG (site CGATCGACTGA)  0
